Test results: patent US11564913B2, “Compositions and methods for treating cancer” (Children's Hospital Medical Center, priority 2019, dated 2023)

What was measured:
[1] = test system: BCR-ABL1-transformed Ba/F3 cells; assay: Colony formation assay in soft agar; type: cell-based, murine; settings: 1 or 10 μM
Protocol: (B) IODVA1-dependent survival curves of empty vector (red circles) or p190-BCR-ABL1 (black circles) expressing Ba/F3 cells and of Nalm-1 cells. […] (C) p190-BCR-ABL1 (grey line) or Mieg3 (black line) expressing Ba/F3 cells were allowed to grow for 1 day, treated with IODVA1 (IO1, 1 μM) for 1 day, and washed (black arrow). Cells were counted for 7 days using trypan blue exclusion. (D) Ba/F3 cells stably expressing p190-BCR-ABL1 were subjected to colony formation assay in soft agar (0.25% Noble Agar in RPMI/FBS/IL-3) in the presence of DMSO or IODVA1 (1 or 10 μM). Colonies were allowed to form for 10 days then stained with iodonitrotetrazolium (1 mg/mL). Data are representative of at least three independent experiments in triplicates. Note the smaller colony size in 1 μM IODVA1 treatment group. (E) Leukemic burden (%) of treated mice before treatment (left upper panel) and at the indicated treatment time was analyzed by flow cytometry of bone marrow aspirates as population containing B220^+/CD43^+ pro-B cells. (F) Count (%) of residual leukemic (EGFP^+-BCR-ABL1) cells in peripheral blood at weeks 3 and 5 for the secondary transplant mice from FIG. 1D. […]
IODVA1 specifically targets BCR-ABL B-ALL cells in vitro. […] We then assessed survival of p190-BCR-ABL-transformed CD34^+ cells in the presence of IODVA1 by trypan blue exclusion. […]

MDA-MB-231 cells = assay: Cell spreading on fibronectin; type: cell-based, human; settings: 30 min exposure, serum-free
Protocol: FIG. 6: IODVA1 inhibits cell-substratum and cell-cell interactions. (A) IODVA1 impedes spreading of MCF7 and MDA-MB-231 cells on fibronectin. MCF7, T47D, and MDA-MB-231 cells were incubated on fibronectin coated coverslips for 10 min, then further incubated with the indicated concentrations of IODVA1 for 30 min in serum-free media, fixed and observed by bright field microscopy. Areas of single cells were calculated from 6 random fields (no less than 300 cells total per treatment group). Results shown are mean±s.e.m. of a single experiment and are representative of three independent experiments. (B) Effects of IODVA1 treatment on spheroid formation in MCF10A, MCF7, T47D, and MDA-MB-231 cells. […] Aggregates and spheroids were dissociated with accutase and trituration, and the number of live cells was determined by trypan blue exclusion. […]
Applicants assessed if IODVA1 interferes with cell spreading on the extracellular matrix, an event that is also governed by the rearrangement of the actin cytoskeleton. […] No changes in the area in T47D cells were detected, although more rounded cells in the presence of IODVA1 were observed.
For cell spreading, MDA-MB-231, MCF7 and T47D were seeded on fibronectin-coated coverslips in serum-free media. […] Six random fields were imaged under 20× objective and cell area of individual cells were quantified to assess the degree of spreading (ImageJ). […]

Q: Which “clonogenic ability in soft agar” value [1] does the source give for `OC1(c2ccccn2)N=C(Nc2nc3ccccc3[nH]2)N=C1c1ccccn1` (centres unmarked) [IODVA1, (Z)-2-((1H-benzo[d]imidazol-2-yl)imino)-4,5-di(pyridin-2-yl)-2,5-dihydro-1H-imidazol-5-ol] here?
A: inhibits

Q: What about the “concentration at which spreading is interfered with (decrease in cell area)” value (MDA-MB-231 cells) of the same compound?
A: 1 µM
